“And” between values parts separate entries of the source, which are not always exact repeats. Identical values can stand only once. Like-named read-outs stand apart in the source and are kept apart here.
How the values were obtained:
FABP4 = target: FABP4; parameters: method as in PMID 11827549; details: ref [6]; read-out: Kd of ANS; cited from earlier work
Cq-FABP [1] = target: T1, Cq-FABP (Cherax quadricarinatus, UniProt L0I6Z9); test: ANS fluorescence intensity titration and equilibrium displacement of ANS by fatty acids; type: binding
Procedure: (§1) Fluorescence emission spectra were measured at 25°C on a Cary-Eclipse spectrofluorimeter (Varian, CA, USA) equipped with a thermostated cell holder, using solutions (70 µl) placed in microcuvettes (pathlength, 0.3 cm). The binding of non-fluorescent fatty acids (PA, OA, LA, EPA and DHA) to Cq-FABP was measured indirectly by equilibrium displacement experiments using ANS as a fluorescent probe, either by measuring the fluorescence emission of ANS or by measuring the FRET between tryptophan and ANS, resulting in the quenching of donor fluorescence. The excitation wavelength was then set at 296 or 350 nm for tryptophan or ANS, respectively; the slit widths and PMT voltage were adjusted to optimize the fluorescence signal at 25°C. For titration experiments, the fluorescence emission spectrum of tryptophan or ANS was measured and the integrated fluorescence signal of tryptophan (315–360 nm) or ANS (440–600 nm) was calculated. For samples containing high concentrations of ANS, the inner-filter effect was not negligible and was corrected. UV-visible absorption spectra were carried out on a Uvikon XL spectrophotometer.
The equilibrium dissociation constant (Kd,FA) relative to the binding of fatty acids (FA) to Cq-FABP was determined by competition experiments using ANS displacement and linear regression of the following relationship: [drawing 1] (1) where Kd,ANS is the dissociation constant relative to the binding of ANS to the fatty acid binding site, Kd ^app ,ANS is the apparent dissociation constant of ANS obtained in the presence of a given fatty acid concentration.

Cq-FABP [2] = target: T1, Cq-FABP; test: Steady-state FRET between the single Trp (W49) and ANS, Trp quenching and recovery by PA; type: binding
Procedure: as §1

Cq-FABP [3] = target: T1, Cq-FABP; test: Time-resolved Trp fluorescence lifetime (single-photon counting) with ANS and PA; type: binding; details: for FRET efficiency: from lifetimes; for Δ%FRET,max based on lifetime values: without versus with 70 µM PA
Procedure: The distribution of fluorescence lifetimes of tryptophan was determined by monitoring the intensity decay, I(t), using the single-photon counting technique [27]–[31]. Briefly, the excitation light pulse source was a Ti:sapphire laser (Mai Tai femtosecond laser, Spectra Physics, Mountain View, CA, USA) associated with a third harmonic generator tuned to 296 nm. The laser frequency was reduced from 80 to 8 MHz using a pulse picker (Spectra Physics). Fluorescence emission was detected by a microchannel plate photomultiplier (Hamamatsu model R3809U-05) through a monochromator (ARC SpectraPro-150) set at 340 nm (Δλ = 15 nm) with the emission polarizer set at the magic angle (54.7°). A time-correlated single-photon counting SPC-430 card (Becker–Hickl, Berlin, Germany) was used for the acquisition. Experiments were performed at 25°C using 5 µM Cq-FABP in buffer C. The average fluorescence lifetime values (τm), as reported in Table 1, were calculated from the lifetime distributions recovered by the maximum entropy method, [29], [32]. For example, Cq-FABP alone was characterized by three fluorescence lifetimes (τ1 = 0.6 ns (6%), τ2 = 2.67 ns (53%), τ3 = 3.89 (41%); τm = 3.04 ns).

Cq-FABP [4] = target: T1, Cq-FABP; test: BODIPY-C16 steady-state fluorescence anisotropy titration and competition; type: binding
Procedure: The binding of 4,4-difluoro-5, 7-dimethyl-4-bora-3a, 4a-diaza-s-indacene-3-hexadecanoic acid (BODIPY-C16) to Cq-FABP was investigated by measuring the steady-state fluorescence anisotropy parameter using a Beacon instrument (PanVera, Madison, USA), in a cell thermostatically held at 25°C. The excitation and emission bandpass filters were centered at 488 nm (±6 nm) and 525 nm (±15 nm), respectively. Titration experiments were performed in buffer C (supplemented with 10% DMSO (v/v)) by maintening a constant concentration of BODIPY-C16 (200 nM) and by adding increasing concentrations of Cq-FABP. Using a vertical direction for the polarized excitation source, the steady-state fluorescence anisotropy (r) was calculated according to: [drawing 3] (3) where IV and IH correspond to the parallel (vertical) and perpendicular (horizontal) fluorescence emission intensity components, respectively. The fraction of BODIPY-C16/Cq-FABP complexes (i.e. the fraction of BODIPY-C16 bound to Cq-FABP), fb, was calculated using the following relationship: [drawing 4] (4) where r is the measured fluorescence anisotropy value, rf and rb correspond to the fluorescence anisotropy values of free BODIPY-C16 (ligand in the free state, measured in the absence of Cq-FABP) and Cq-FABP-bound BODIPY-C16 (ligand in the bound state, corresponding to the maximum anisotropy value found at the plateau), respectively. […] The Kd characterizing the BODIPY-C16/Cq-FABP complex (Kd,C16) was calculated by fitting the plot of fb versus [Cq-FABP] using the Graphpad Prism 5.0 software.
The fluorescence anisotropy-based assay was also used in competition experiments to calculate the Kd values (Kd,FA) characterizing non-fluorescent fatty acids. The measurement of the apparent Kd value characterizing the BODIPY-C16/Cq-FABP complex (Kd ^app ,C16) under different concentration conditions for the non-fluorescent FA allows the calculation of Kd,FA according to: [drawing 5] (5) where Kd,C16 corresponds to the Kd characterizing the BODIPY-C16/Cq-FABP complex (in the absence of any non-fluorescent FA) and Kd ^app ,C16 corresponds to the apparent dissociation constant obtained for a given concentration of non-fluorescent FA. The calculation of Kd,FA was also performed in an independent manner by measuring the IC50 value characterizing each non-fluorescent FA. In this approach, the number of complexes corresponding to [C16] = 200 nM and [Cq-FABP] = 5 µM was varied by increasing the concentration of non-fluorescent FA. The IC50 value corresponds to the concentration of non-fluorescent FA that displaces 50% of C16 from the fatty acid binding site of Cq-FABP and is related to Kd,FA through the Cheng-Prusoff relationship: [drawing 6] (6)

Cq-FABP [5] = target: T1, Cq-FABP; test: DAUDA fluorescence intensity enhancement; type: binding; details: 5 µM Cq-FABP versus free DAUDA (Fig. S3A)
Excerpt: Cis-parinaric acid and DAUDA were characterized by fluorescence emission in the 380–500 nm region (λmax,em: 410 nm) and in the 480–650 nm region (λmax,em: 540 nm), respectively (excitation wavelengths were set at 320 or 335 nm for cis-parinaric acid or DAUDA, respectively). The fluorescence intensity enhancement upon binding to Cq-FABP was monitored on a Cary-Eclipse spectrofluorimeter as indicated above. All the fluorescence emission intensities were corrected for the inner-filter effect. The emission intensity of a given fluorophore in the presence of Cq-FABP was also systematically corrected for the emission intensity of the free fluorophore. The calculation of Kd,FA was performed by measuring the IC50 value (inhibition concentration 50%) characterizing each non-fluorescent FA. As DAUDA poorly binds to Cq-FABP (see results section), only cis-parinaric acid (CPA) was used for measuring IC50 values. Titration and equilibrium displacement experiments using CPA were performed in buffer C (supplemented with 10% DMSO (v/v)). For the determination of IC50 values, the number of complexes corresponding to [CPA] = 7 µM and [Cq-FABP] = 5 µM was varied by increasing the concentration of non-fluorescent FA. […]

Cq-FABP [6] = target: T1, Cq-FABP; test: cis-Parinaric acid fluorescence intensity titration and competitive displacement; type: binding
Excerpt: Cis-parinaric acid and DAUDA were characterized by fluorescence emission in the 380–500 nm region (λmax,em: 410 nm) and in the 480–650 nm region (λmax,em: 540 nm), respectively (excitation wavelengths were set at 320 or 335 nm for cis-parinaric acid or DAUDA, respectively). The fluorescence intensity enhancement upon binding to Cq-FABP was monitored on a Cary-Eclipse spectrofluorimeter as indicated above. All the fluorescence emission intensities were corrected for the inner-filter effect. The emission intensity of a given fluorophore in the presence of Cq-FABP was also systematically corrected for the emission intensity of the free fluorophore. The calculation of Kd,FA was performed by measuring the IC50 value (inhibition concentration 50%) characterizing each non-fluorescent FA. As DAUDA poorly binds to Cq-FABP (see results section), only cis-parinaric acid (CPA) was used for measuring IC50 values. Titration and equilibrium displacement experiments using CPA were performed in buffer C (supplemented with 10% DMSO (v/v)). For the determination of IC50 values, the number of complexes corresponding to [CPA] = 7 µM and [Cq-FABP] = 5 µM was varied by increasing the concentration of non-fluorescent FA. The IC50 value corresponds to the concentration of non-fluorescent FA that displaces 50% of CPA from the fatty acid binding site of Cq-FABP and is related to Kd,FA through the Cheng-Prusoff relationship: [drawing 2] (2)

[7] = 200 nM BODIPY-C16, 5 µM Cq-FABP, read-out: IC50 (displaces 50% of BODIPY-C16 from the fatty acid binding site)
[8] = calculated from the IC50 values, using Eq. 6, 200 nM BODIPY-C16, 5 µM Cq-FABP, read-out: Kd,FA
[9] = calculated from the Kd app,C16 values, using Eq. 5, 200 nM BODIPY-C16, read-out: Kd,FA
[10] = calculated from equilibrium displacement experiments using the fluorescence intensity of ANS (Eq. 1), read-out: Kd,FA
[11] = calculated from the IC50 values (Eq. 2) using the fluorescence intensity of cis-parinaric acid, 7 µM CPA, 5 µM Cq-FABP, read-out: Kd,FA

T1 sequence (L0I6Z9 entry or part of it): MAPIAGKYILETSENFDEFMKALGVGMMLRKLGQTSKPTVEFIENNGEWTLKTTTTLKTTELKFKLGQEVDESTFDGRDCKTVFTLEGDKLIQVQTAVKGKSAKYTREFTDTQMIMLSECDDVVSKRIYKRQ

## O=S(=O)(O)c1cccc2cccc(Nc3ccccc3)c12 [ANS, 8-Anilino-1-naphthalenesulfonate]
FABP4
  Kd: 1.7 µM
Cq-FABP [1]; average of the Kd,ANS values from the intensity and FRET procedures, read-out: average Kd,ANS
  Kd: 27.9 µM
Cq-FABP [1]; direct titration, 5 µM Cq-FABP, 25°C, after removing free ANS and non specific contributions (Fig. 2B), read-out: Kd,ANS
  Kd: 30 µM and ~30 µM
Cq-FABP [1]; from displacement amplitude ΔI by PA plotted against [ANS] (Fig. 2D), 5 µM Cq-FABP, read-out: Kd,ANS
  Kd: 26 µM
Cq-FABP [1]; y-intercept of Kd app,ANS versus [PA] linear regression (Fig. 3B), read-out: Kd,ANS
  Kd: 27.8 µM
Cq-FABP [2]; from Δ%FRET versus [ANS] (Fig. 4D), binding to fatty acid binding site only, read-out: Kd,ANS
  Kd: 27.6 µM
Cq-FABP [2]; quenching of Trp steady-state emission by ANS, specific plus non specific binding (Fig. 4A), read-out: apparent Kd of ANS
  Kd: ~100 µM
Cq-FABP [2]; steady-state fluorescence intensities, amplitude between [PA]0 and [PA]+∞ (Fig. 4D)
  Δ%FRET,max (plateau): 10%
Cq-FABP [3]; 5 µM Cq-FABP + 5 µM ANS
  Average fluorescence Lifetime, τm: 2.85 ns
  FRET efficiency: 6.2%
Cq-FABP [3]; 5 µM Cq-FABP + 10 µM ANS
  Average fluorescence Lifetime, τm: 2.75 ns
  FRET efficiency: 9.5%
Cq-FABP [3]; 5 µM Cq-FABP + 50 µM ANS
  Average fluorescence Lifetime, τm: 2.39 ns
  FRET efficiency: 21.4%
Cq-FABP [3]; 5 µM Cq-FABP + 200 µM ANS
  Average fluorescence Lifetime, τm: 2.00 ns
  FRET efficiency: 34.2%
Cq-FABP [3]; [ANS] = 50 µM
  Δ%FRET,max based on lifetime values: 12.5%
Cq-FABP [3]; [ANS] = 200 µM
  Δ%FRET,max based on lifetime values: 11.2%

## Cc1cc(C)n2c1C=C1C=CC(CCCCCCCCCCCCCCCC(=O)O)=[N+]1[B-]2(F)F [BODIPY-C16, 4,4-difluoro-5,7-dimethyl-4-bora-3a, 4a-diaza-s-indacene-3-hexadecanoic acid, reference compound]
Cq-FABP [4]; direct titration, 200 nM BODIPY-C16, increasing Cq-FABP, 25°C, 10% DMSO, read-out: Kd,C16
  Kd: 3.1 µM

## CN(C)c1cccc2c(S(=O)(=O)NCCCCCCCCCCC(=O)O)cccc12 [DAUDA, 11-((5-dimethylaminonaphthalene-1-sulphonyl)amino)-undecanoic acid, reference compound]
Cq-FABP [4]; [7]
  IC50: 263 µM
Cq-FABP [4]; from IC50 according to the Cheng-Prusoff relationship, 200 nM BODIPY-C16, 5 µM Cq-FABP, read-out: apparent Kd of Cq-FABP/DAUDA complex
  Kd: ~250 µM
Cq-FABP [5]
  binding of DAUDA by fluorescence enhancement: does not bind or only poorly binds

## CC/C=C\C/C=C\C/C=C\C/C=C\C/C=C\C/C=C\CCC(=O)O [DHA, cis-4,7,10,13,16,19-docosahexaenoic acid]
Cq-FABP [4]; [7]
  IC50: 7.67 µM
Cq-FABP [4]; [8]
  Kd: 7.4 ± 0.7 µM
Cq-FABP [4]; [9]
  Kd: 6.6 ± 0.5 µM
Cq-FABP [1]; [10]
  Kd: 5.8 ± 0.3 µM
Cq-FABP [6]; [11]
  Kd: 4.4 ± 0.8 µM

## CC/C=C\C/C=C\C/C=C\C/C=C\C/C=C\CCCC(=O)O [EPA, cis-5,8,11,14,17-eicosapentaenoic acid]
Cq-FABP [4]; [7]
  IC50: 2.29 µM
Cq-FABP [4]; [8]
  Kd: 2.2 ± 0.4 µM
Cq-FABP [4]; [9]
  Kd: 3.5 ± 0.4 µM
Cq-FABP [1]; [10]
  Kd: 2.9 ± 0.3 µM

## CCCCC/C=C\C/C=C\CCCCCCCC(=O)O [LA, linoleic acid]
Cq-FABP [4]; [7]
  IC50: 3.53 µM
Cq-FABP [4]; [8]
  Kd: 3.4 ± 0.4 µM
Cq-FABP [4]; [9]
  Kd: 3 ± 0.4 µM
Cq-FABP [1]; [10]
  Kd: 3.1 ± 0.5 µM
Cq-FABP [6]; [11]
  Kd: 3.3 ± 0.7 µM

## CCCCCCCC/C=C\CCCCCCCC(=O)O [OA, oleic acid]
Cq-FABP [4]
  IC50: 2.23 µM
Cq-FABP [4]; Kd,FA, calculated from the IC50 values, using Eq. 6, 200 nM BODIPY-C16, 5 µM Cq-FABP
  Kd: 2.15 ± 0.4 µM
Cq-FABP [4]; Kd,FA, calculated from the Kd app,C16 values, using Eq. 5, 200 nM BODIPY-C16
  Kd: 2.6 ± 0.3 µM
Cq-FABP [1]
  Kd: 2.4 ± 0.4 µM
Cq-FABP [6]
  Kd: 1.3 ± 0.6 µM

## CC\C=C/C=C/C=C/C=C\CCCCCCCC(=O)O [cis-parinaric acid, reference compound]
Cq-FABP [6]; fluorescence enhancement upon binding, 5 µM Cq-FABP, buffer C + 10% DMSO (Fig. S3B), read-out: Kd of cis-parinaric acid
  Kd: 31.2 µM
